Data as given in patent publication US20090074850A1, “USE OF A TOPICAL COMPOSITION CONTAINING EPIDERMAL GROWTH FACTOR (EGF) FOR DIABETIC FOOT AMPUTATION PREVENTION” (priority 2005, published 2009).
Marks after values point to notes of the source that are not given here.

Tests used:
[1] = tested on: diabetic foot ulcers, grade IV and V lesions with a severe ischemic component; conditions: EGF infiltrated in and around lesions with hypodermic needles; cited from earlier work
[2] = tested on: controlled acute ulcers in male Wistar rats; test: Experimental model of controlled acute lesions; type: in vivo
Description: The following experiment was performed with the aim of evaluating the cicatrisation effect of the new pharmaceutical formulation for topical use, which is based on EGF-loaded (deformable or traditional) liposomes, in acute lesions of satisfactory prognosis.
(§1) Experimental Biomodel Male Wistar rats with a body weight of 225-250 grams. Animal were maintained in controlled areas of the animal facility at CIGB under a constant illumination schedule of 12×12 hours, air change cycles, and free access to the diet. The rats were individually housed into T3 boxes with replacement of the bedding every 48 hours after its sterilization. Induction of ulcers: Animals were anesthetized by intraperitoneal injection of ketamine/xylazine. The back of rats comprising the area from the retroscapular space up to the sacrum was mechanically and chemically depilated. This region was aseptisized with a solution of povidone-iodine and isopropyl alcohol. The area over the skin selected for the induction of ulcers was marked with Chinese ink in order to induce circular, total width lesions with the aid of 9 mm-diameter biotomes (AcuDrem, Fl, USA). […] Lesions were washed with a sterile saline solution and their inner border was delineated with permanent ink for later calculation of wound area at time zero. The lesions of all animals were hygienized daily with 70% ethanol and sterile saline before the application of any treatment.
(§2) The ulcers created in the animals were randomly assigned to the following experimental treatment groups by using an input order/group crossmatching table:
(§3) Group I—no treatment. Group II—placebo (formulation of empty deformable liposomes—without EGF) applied topically.
(§4) Group III—infiltration of an EGF solution containing 75 micrograms per milliliter by using hypodermic needles. Infiltrations were performed on the border and the bottom of wounds
Group IV—treatment with the formulation of traditional liposomes containing 25 micrograms of EGF per gram of substance applied topically Group V—treatment with the formulation of traditional liposomes containing 75 micrograms of EGF per gram of substance applied topically Group V—treatment with the formulation of deformable liposomes containing 25 micrograms of EGF per gram of substance applied topically Group VII—treatment with the formulation of deformable liposomes containing 75 micrograms of EGF per gram of substance applied topically
(§5) Each group consisted of 10 rats; therefore 60 wounds per group were studied. Treatments were performed daily, after sedation of animals with diazepam administrated by the intra-peritoneal route.
(§6) The lesions were traced on transparent acetate sheets for calculating the kinetics of the wounds contraction over the following times: Time 0—represents 100% of opened lesion area and 0% wound contraction, Time 1—72 hours after the induction of lesions, Time 2—five days after the induction of lesions, Time 3—seven days after the induction of lesions, Time 4—nine days after the induction of lesions. The ninth day was set as the end of this study, on which the animals were sacrificed, according to previous experiences on the kinetics of the spontaneous cicatrisation of these lesions. The images with traced lesions borders were digitized. The area of lesions and the percent of contraction were calculated by using the image analysis software DIGIPAT. Statistical analyses of each parameter were performed with the SPSS package by using the non-parametric Mann Whitney U test, a signification level of p<0.05 was assumed.
Animals were sacrificed by intra-peritoneal injection with an overdose of sodium pentobarbital (250 mg/kg). Lesion were dried up from the panniculus carnosus and fixed in 10% neutral formalin for later inclusion in paraffin. The hematoxylin/eosin, van Giesson's and Masson's trichromic stains were used. For each group, the number of animals with 100% epithelization of the lesion, and with a stratified and differentiated epidermis was determined. […]

[3] = tested on: chronic ulcers in male Wistar rats treated with methylglyoxal; test: Experimental model of chronic cutaneous ulcers (methylglyoxal-treated rats); type: in vivo
Description: The following experiment was aimed at evaluating the cicatrisation effect of the new pharmaceutical formulation of topical use that is based on traditional or deformable liposomes containing EGF in chronic lesions of poor prognosis, which simulate lesions in diabetic patients.
Experimental Biomodel Male Wistar rats with a body weight of 225-250 grams. Animal were maintained in controlled areas of the animal facility at CIGB under a constant illumination schedule of 12×12 hours, air change cycles, and free access to the diet. The rats were individually housed into T3 boxes with replacement of the bedding every 48 hours after its sterilization. The animals had previously been treated for two months with a 0.01% methylglyoxal solution to create a glycosylation environment similar to that occurring in a diabetic patient of long term evolution. Among other organic damages, this leads to a slow down of the granulation and remodelation of wounds (Berlanga J., Cibrian D., et al. (2005) Methylglyoxal administration induces diabetes-like microvascular changes and perturbs the healing process of cutaneous wounds. Clin Sci (Lond). 109(1):83-95).
as §1, with “Induction” for “Experimental Biomodel Male Wistar rats with a body weight of 225-250 grams. Animal were maintained in controlled areas of the animal facility at CIGB under a constant illumination schedule of 12×12 hours, air change cycles, and free access to the diet. The rats were individually housed into T3 boxes with replacement of the bedding every 48 hours after its sterilization. Induction”
as §2, §3, §4
Group IV—treatment with the formulation of traditional liposomes containing 25 micrograms of EGF per gram of substance applied topically Group V—treatment with the formulation of traditional liposomes containing 75 micrograms of EGF per gram of substance applied topically Group VI—treatment with the formulation of deformable liposomes containing 25 micrograms of EGF per gram of substance applied topically Group VII—treatment with the formulation of deformable liposomes containing 75 micrograms of EGF per gram of substance applied topically
as §5
as §6, with “[…],” for “Time 4—nine days after the induction of lesions. The ninth day was set as the end of this study,”, “assumed. […]” for “assumed.”

[4] = Concentration of EGF in the viable tissue deep below the cutaneous lesions (ELISA); type: in vivo, Wistar rats; conditions: tissue 1 cm below lesion
Description: To determine the concentration of EGF, histological cuts of the tissue deep below (1 cm) the cutaneous lesions were performed 20 min, 1 h, 4 h, 8 h, 16 h and 24 h after the induction of lesions. The tissue was homogenized into a phosphate-buffered saline solution. The concentration of EGF was determined by an Enzyme Linked Immunosorbent Assay (ELISA).

epidermal growth factor (EGF) [Free EGF, non-encapsulated epidermal growth factor]
efficacy [1]: greater than 50%

Group III: infiltration of an EGF solution containing 75 micrograms per milliliter by using hypodermic needles
No. wounds with 100% epithelization ([2]; 60 wounds per group): 37
No. wounds with a mature epithelium ([2]; 60 wounds per group): 25
Contraction (%) ([2]; Time 1 (72 hours after induction of lesions)): 12.3 ± 2.1*^a %
Contraction (%) ([2]; Time 2 (five days)): 23 ± 2.7*^a %
Contraction (%) ([2]; Time 3 (seven days)): 67.5 ± 3.1*^a %
Contraction (%) ([2]; Time 4 (nine days)): 76.5 ± 2.2*^a %
% area covered by mature granulation tissue ([2]; Time 4, 60 wounds per group): 66.7 ± 3.22%
No. wounds with 100% epithelization ([3]; 60 wounds per group): 16
No. wounds with a mature epithelium ([3]; 60 wounds per group): 11
Contraction (%) ([3]; Time 1): 6.55 ± 1.14%
Contraction (%) ([3]; Time 2): 10.25 ± 3.1 %
Contraction (%) ([3]; Time 3): 25 ± 2.7 %
Contraction (%) ([3]; Time 4): 53.5 ± 3.5 %
% area covered by mature granulation tissue ([3]; Time 4, 60 wounds per group): 41.7 ± 2.25%
Contraction (%) ([3]; Time 6): 61.7 ± 2.14 %
EGF concentration ([4]; 20 min): 27.55 ± 0.14 µg/mL
EGF concentration ([4]; 1 h): 5.47 ± 0.1 µg/mL
EGF concentration ([4]; 4 h): 1.55 ± 0.1 µg/mL
EGF concentration ([4]; 8 h): 0.26 ± 0.04 µg/mL
EGF concentration ([4]; 16 h): 0.07 ± 0.01 µg/mL
EGF concentration ([4]; 24 h): 0.02 ± 0.005 µg/mL
